These results are taken from patent US20190054054A1, “Methods reducing or preventing oxidation of high density lipoprotein (HDL)” (Amarin Pharmaceuticals Ireland Limited, priority 2017, published 2019).

Experiment [1] can be described thus: Membrane cholesterol domain peak intensity, x-ray diffraction of POPC/cholesterol membranes (Example 9). Particulars: 1.5:1 C/P mole ratio; for % change Vs control / Relative Cholesterol Domain Preak Intensity: drug-to-phospholipid mole ratio 1:30; for Relative Cholesterol Domain Preak Intensity: POPC and cholesterol. As for the experimental part: The fatty acid stock solutions were stored at −20° C. until use. […] Samples were shell-dried under nitrogen gas and placed under vacuum for 3 hours to remove residual solvent at room temperature. After desiccation, each sample was resuspended in saline buffer (0.5 mM HEPES, 154 mM NaCl, pH 7.3) to yield a final phospholipid concentration of 2.5 mg/mL. Lipid suspensions were then vortexed for 3 minutes at ambient temperature to form MLVs. Membrane lipid vesicles were oriented for x-ray diffraction analysis as described by others (e.g., Herbette et al., Biophys. […] Briefly, a 100 μL aliquot of each MLV preparation (containing 250 μg MLV) was transferred to a Lucite® sedimentation cell fitted with an aluminum foil substrate designed to collect MLVs into a single membrane pellet upon centrifugation. […] After centrifugal orientation, sample supernatants were aspirated and aluminum foil substrates, each supporting a single membrane pellet, were removed from the sedimentation cells. Sample pellets were dried for 5-10 minutes at ambient conditions, mounted onto curved glass supports, and placed in hermetically-sealed, brass or glass containers (for immediate analysis or temporary storage, respectively). All x-ray diffraction experiments were conducted at 20° C., 74% relative humidity. The latter was established by exposing membrane samples to saturated solutions of L-(+)-tartaric acid (K2C4H4O6.½H2O) for at least 1 hour prior to experimental analysis. Oriented membrane samples were aligned at grazing incidence with respect to a collimated, mono-chromatic CuKα x-ray beam (Kα1 and Kα2 unresolved; λ=1.54 Å) produced by a Rigaku Rotaflex RU-200, high-brilliance microfocus generator (Rigaku-MSC, The Woodlands, Tex.) as previously described (Mason et al., Biophys. J., vol. 55(4), pages 769-778 (1989)). The samples were initially subjected to x-ray diffraction analysis at least 12 hours after formation of the membrane pellets and retested for up to several days. Analytical x-rays were generated by electron bombardment of a rotating copper anode and are filtered through a thin nickel foil to provide monochromatic radiation (λ=1.54 Å). Collimation of the x-ray beam was achieved using a single Franks mirror. Diffraction data were collected on a one-dimensional, position-sensitive electron detector (Hecus X-ray Systems, Graz, Austria) at a sample-to-detector distance of 150 mm from the sample site. The d-space for any given membrane multi bilayer is a measurement of the unit cell periodicity of the membrane lipid bilayer (e.g., the distance from the center of one lipid bilayer to the next including surface hydration), and is calculated from Bragg's Law, h λ=2 d sin θ, where h is the diffraction order, λ is the wavelength of the x-ray radiation (1.54 Å), d is the membrane lipid bilayer unit cell periodicity, and θ is the Bragg angle equal to one-half the angle between the incident beam and scattered beam. […] Routines written in Origin 8.6 (OriginLab Corporation, Northampton, Mass.) were used to determine total peak area (associated with all diffraction peaks in a given pattern) against which the second-order cholesterol domain peak was normalized. The raw data collected in this study was normalized using internal. Data were presented as mean+S.E.M. for (N) separate samples or treatment groups. Differences between groups were analyzed using the two-tailed, Student's t-test (for comparisons between only two groups) or ANOVA followed by Dunnett or Student-Newman-Keuls multiple comparisons post-hoc analysis (for comparisons between three or more groups). Alpha error was set to 0.05 in this study.

Experiment [2] relates to sdLDL isolated from human subjects under conditions of hyperglycemia. Put plainly: Glucose-induced sdLDL oxidation, MDA/TBARS (Example 10). The note with it: 200 mg/dL glucose; for effect on glucose-induced sdLDL oxidation: 10.0 μM. It is filed as biochemical. Here is the method:
Vitamin E (α-tocopherol) purchased from Sigma-Aldrich was prepared in ethanol at 1.0 mM (E=[…] at 294 nm) prior to experimental use. Test compounds were further diluted in ethanol or aqueous buffer as needed. Phosphate Buffered Saline (PBS) purchased from Sigma-Aldrich was prepared in double distilled water at 10 mM (138 mM NaCl, 2.7 mM KCl, pH 7.4). […] Lipid oxidation was measured by the colorimetric detection of malondialdehyde (MDA), a marker of oxidative stress. Data were presented as mean±SD for (n) separate samples or experiments. Differences between groups were analyzed using the unpaired, two-tailed Student's t-test (for comparisons between only two groups) or ANOVA followed by Student-Newman-Keuls multiple comparisons post hoc analysis (for comparisons between three or more groups).

Experiment [3] deals with human sdLDL. Put plainly: Copper-induced sdLDL oxidation, TBARS (Example 7). It is filed as biochemical. Particulars: for effect on sdLDL oxidation as compared to vehicle-treated controls: all at 10 μM, 1 hour (FIG. 16). As for the experimental part:
(§1) An experiment to study the antioxidant effect of EPA in LDL and small dense […] performed. […] Fenofibrate, gemfibrozil, and niacin were purchased from Sigma-Aldrich. […] Vitamin E was also incubated with sample aliquots as a positive control.

The test system of experiment [4] is human LDL. Put plainly: Copper-induced oxidation of unfractionated LDL, TBARS (Example 7). It is filed as biochemical. The note with it: for effect on unfractionated LDL oxidation as compared to vehicle-treated controls: all agents at 10 μM, 1 hour (FIG. 25). As for the experimental part:
as §1

Where [5] appears, read: EPA to phospholipid mole ratio 1:60.
Setting [6] is: EPA to phospholipid mole ratio 1:90.

On to `CC/C=C\C/C=C\C/C=C\C/C=C\C/C=C\CCCC(=O)O` [EPA, cis-5,8,11,14,17-eicosapentaenoic acid], for which the “reduction in cholesterol domain peaks as compared to vehicle treatment” value in experiment [1] (1:30) is reported as 65%. Moreover, the results for the “% Change (vs. Control)” value in experiment [1] (setting [5]) and in experiment [1] (setting [6]) were −30.2 ± 27.9% and −15.0 ± 12.6%, respectively. Also, the “Relative Cholesterol Domain Peak Intensity” value is 29.5 ± 10.9 in experiment [1] (setting [5]) and 36.0 ± 3.1 in experiment [1] (setting [6]). The “% change Vs control” value in experiment [1] is −65.5 ± 17.1%. Moreover, the “Relative Cholesterol Domain Preak Intensity” value in experiment [1] was 14.6±5. Moreover, the IC50 is < 1000 nM in experiment [2] (read-out: IC50, inhibition of glucose-induced sdLDL oxidation) and ~2000 nM in experiment [3] (1 hr, 10 μM CuSO4, read-out: IC50, inhibition of sdLDL oxidation (calculated)). Further, the “inhibition of sdLDL oxidation as compared to vehicle controls” value in experiment [2] (highest concentration tested) is 94%. The same molecule showed a sdLDL oxidation (formation of MDA) in experiment [2] (highest concentration tested, unit of the source corrected) of 0.2 ± 0.1 µM. Also, the “inhibition of sdLDL oxidation as compared to vehicle” value was 19±8% in experiment [3] (1.0 μM (each agent), 1 hr) and 92±8% in experiment [3] (each agent at 10.0 μM, 1 hour (FIG. 17)). In addition, in experiment [3] (10.0 μM, after 4 hours), the “effect on sdLDL oxidation as compared to vehicle or DHA” value was “significantly inhibited sdLDL oxidation”. Also, the “inhibition of TBARS formation” value in experiment [3] (highest treatment concentration (10 μM), 1 hr) was 93±2%. The “effect on unfractionated LDL oxidation, dose dependence” value in experiment [4] (1 hour) is “significantly and reproducibly inhibited unfractionated LDL oxidation in a dose-dependent manner”. The “inhibition of TBARS formation compared to vehicle-treated control” value in experiment [4] (highest treatment concentration, 1 hour) is > 90%.

For `Cc1ccc(C)c(OCCCC(C)(C)C(=O)O)c1` [gemfibrozil], in experiment [1] (1:30), the “effect on cholesterol domains (in words)” value is “no significant changes in cholesterol domain size”. In experiment [1], the “% change Vs control” value is 11% and the “Relative Cholesterol Domain Preak Intensity” value was found to be 46.9±12.6. Also, in experiment [1] (listed as Gemfib), the “% change Vs control” value was 10.9 ± 43.3% and the “Relative Cholesterol Domain Preak Intensity” value came out at 46.9 ± 12.6. In addition, the “effect on glucose-induced sdLDL oxidation” value in experiment [2] is on record as “did not inhibit glucose-induced sdLDL oxidation”. The “effect on sdLDL oxidation as compared to vehicle-treated controls” value in experiment [3] is listed as “no significant effect on sdLDL oxidation”. Besides, the “effect on unfractionated LDL oxidation as compared to vehicle-treated controls” value in experiment [4] was “no significant effect on unfractionated LDL oxidation”.

Take `O=C(O)c1cccnc1` [niacin, nicotinic acid]: in experiment [1] (1:30), the “effect on cholesterol domains (in words)” value is listed as “no significant changes in cholesterol domain size”. Further, in experiment [1], the “% change Vs control” value is listed as −35% and the “Relative Cholesterol Domain Preak Intensity” value was 27.5±12.2. For the same molecule, in experiment [1] (listed as Niacin), the “% change Vs control” value is reported as −35.0 ± 30.8% and the “Relative Cholesterol Domain Preak Intensity” value was determined as 27.5 ± 12.2. Moreover, the “effect on glucose-induced sdLDL oxidation” value in experiment [2] is “did not inhibit glucose-induced sdLDL oxidation”. The “effect on sdLDL oxidation as compared to vehicle-treated controls” value in experiment [3] is reported as “no significant effect on sdLDL oxidation”. Also, the “effect on unfractionated LDL oxidation as compared to vehicle-treated controls” value in experiment [4] is listed as “no significant effect on unfractionated LDL oxidation”.

For the molecule `Cc1c(C)c2c(c(C)c1O)CC[C@@](C)(CCC[C@H](C)CCC[C@H](C)CCCC(C)C)O2` [vitamin E, α-tocopherol], in experiment [2], the “effect on glucose-induced sdLDL oxidation” value is on record as “failed to inhibit sdLDL oxidation” and the “increase in sdLDL oxidation as compared to glucose-treated controls” value came out at 63%. Also, the “effect on sdLDL oxidation as compared to vehicle-treated controls” value in experiment [3] is on record as “no significant effect on sdLDL oxidation”. For the same molecule, in experiment [4], the “effect on unfractionated LDL oxidation as compared to vehicle-treated controls” value is “no significant effect on unfractionated LDL oxidation”.
